The source of these data is patent publication US20260132384A1, “METHOD FOR REPROGRAMMING HUMAN SOMATIC CELLS INTO INDUCED PLURIPOTENT STEM CELLS” (EXONEUGLIA BIOTECHNOLOGY (SUZHOU) CO., LTD., priority 2023, published 2026).

This experiment deals with peripheral blood mononuclear cells (PBMCs). The experiment is described as follows: Reprogramming of human peripheral blood cells into induced pluripotent stem cells; clones counted by alkaline phosphatase staining. The format is cell-based. The following applies: day 14, clones per 5.0×10^5 reprogrammed PBMCs, OCT4, SOX2, LIN28 episomal plasmids, inducers added to induction medium. As to the method:
The inducing factors were introduced via electroporation of episomal plasmids in Treatment Groups 1 to 6. The groups differed only in the chemical inducer small molecules added to the pluripotent stem cell induction medium. The specific steps were as follows:
(2) Expansion of Peripheral Blood Cells: Freshly isolated peripheral blood cells (peripheral blood cells obtained with ethical approval were purchased from Shanghai HYCELLs Company) were seeded into a 6-well plate at a density of 5×10^6 cells/mL and cultured statically for 7 days at 37° C. in an incubator. The peripheral blood cell expansion medium used was StemPro™-34 medium supplemented with SCF 100 ng/ml, FLT-3 100 ng/ml, IL-3 20 ng/ml, IL-6 20 ng/ml, and TPO 100 ng/mL.
(3) Electroporation: Prior to electroporation, 500 μL of diluted basement membrane matrix (Matrigel) was added to a […] and placed in a CO2 incubator for coating. The expanded cells were collected and washed. After counting, the peripheral blood mononuclear cells (PBMCs) were placed in a 1.5 mL centrifuge tube at a density of 2×10^6 cells/mL. The tube was loaded into a centrifuge and centrifuged at 200 g for 5 minutes. After centrifugation, the supernatant was aspirated with a pipette and set aside for later use.
According to the Thermo Neon electroporation instrument protocols, buffer was added. The cell pellet was mixed with 5 μg of pCEP4-OCT4-IRES-SOX2 plasmid and 2 μg of pCEP4-Lin28 plasmid, and the mixture was loaded into the electroporation instrument for electroporation. Peripheral blood expansion medium was immediately added thereafter, and the cells were seeded in the coated 6-well plate at a density of 5×10^5 cells/mL and cultured statically for 48 h at 37° C. in a CO2 incubator.
(4) Induction: At 48 h post-electroporation, 1 mL of pluripotent stem cell induction medium was directly added to the original wells, and the culture was continued statically for 48 h at 37° C. in a CO2 incubator; On day 4 post-electroporation, half of the old medium in the original wells was aspirated and discarded, 1 mL of fresh pluripotent stem cell induction medium was then added, and the culture was continued statically for 48 h at 37° C. in a CO2 incubator; On day 6 post-electroporation, all the old medium in the original wells was aspirated and discarded, 1 mL of fresh pluripotent stem cell induction medium was added, and the culture was continued statically for 48 h at 37° C. in a CO2 incubator; On day 8 post-electroporation, all the old medium in the original wells was aspirated and discarded, 1 mL of fresh pluripotent stem cell induction medium was added, and the culture was continued statically for 48 h at 37° C. in a CO2 incubator; On day 10 post-electroporation, all the old medium in the original wells was aspirated and discarded, 1 mL of fresh mTeSR1 medium was added, and the culture was continued statically at 37° C. in a CO2 incubator; The mTeSR1 medium was changed daily until the induced pluripotent stem cells were fully mature, approximately on day 14 or 15 post-electroporation. Clones were then picked for expansion.
The pluripotent stem cell induction medium for Treatment Group 1 was mTeSR1 medium supplemented with 3 μM chir99021, 100 ng/ml FGF2, 250 μM NaB, 2 μM SB203580, 1 μM peficitinib, 1 μM FPFT-2216, 0.1 μM VTP50469, 2% (v/v) B27, and 1% (v/v)N-2.
The pluripotent stem cell induction medium for Treatment Group 2 was mTeSR1 medium supplemented with 3 μM chir99021, 100 ng/ml FGF2, 250 μM NaB. 1 μM peficitinib, 2% (v/v) B27, and 1% (v/v)N-2.
The pluripotent stem cell induction medium for Treatment Group 3 was mTeSR1 medium supplemented with 3 μM chir99021, 100 ng/ml FGF2, 250 μM NaB, 2 μM Tofacitinib, 2% (v/v) B27, and 1% (v/v)N-2.
The pluripotent stem cell induction medium for Treatment Group 4 was mTeSR1 medium supplemented with 3 μM chir99021, 100 ng/ml FGF2, 250 μM NaB, 2 μM SB203580, 2% (v/v) B27, and 1% (v/v)N-2. […]

Take `C[C@@H]1CCN(C(=O)CC#N)C[C@@H]1N(C)c1ncnc2[nH]ccc12` [Tofacitinib]: the “Average Number of Pluripotent Stem Cell Clone/Well, Experiment 1” value came to 20 Clone/Well; the “Average Number of Pluripotent Stem Cell Clone/Well, Experiment 2” value is given as 16 Clone/Well; the “Average Number of Pluripotent Stem Cell Clone/Well, Experiment 3” value is 22 Clone/Well.
The like results for `NC(=O)c1cnc2[nH]ccc2c1N[C@@H]1[C@@H]2CC3C[C@H]1C[C@@](O)(C3)C2` [Peficitinib] were, in that order, 43 Clone/Well, 52 Clone/Well and 47 Clone/Well.
On to `C[S+]([O-])c1ccc(-c2nc(-c3ccncc3)c(-c3ccc(F)cc3)[nH]2)cc1` (stereo not drawn) [SB203580], for which the “Average Number of Pluripotent Stem Cell Clone/Well, Experiment 1” value is listed as 51 Clone/Well; the “Average Number of Pluripotent Stem Cell Clone/Well, Experiment 2” value is on record as 56 Clone/Well; the “Average Number of Pluripotent Stem Cell Clone/Well, Experiment 3” value worked out at 48 Clone/Well.
